Data on 21 compounds can be found in ChEMBL document CHEMBL1134154, “1-Alkyl-3-amino-5-aryl-1H-[1,2,4]triazoles: novel synthesis via cyclization of N-acyl-S-methylisothioureas with alkylhydrazines and their potent corticotropin-releasing factor-1 (CRF(1)) receptor antagonist activities” (Bioorg Med Chem Lett, 2001).

The target of assay [1] is T1, Corticotropin-releasing factor receptor 1 (Homo sapiens, UniProt P34998).
T1 sequence (P34998 whole entry): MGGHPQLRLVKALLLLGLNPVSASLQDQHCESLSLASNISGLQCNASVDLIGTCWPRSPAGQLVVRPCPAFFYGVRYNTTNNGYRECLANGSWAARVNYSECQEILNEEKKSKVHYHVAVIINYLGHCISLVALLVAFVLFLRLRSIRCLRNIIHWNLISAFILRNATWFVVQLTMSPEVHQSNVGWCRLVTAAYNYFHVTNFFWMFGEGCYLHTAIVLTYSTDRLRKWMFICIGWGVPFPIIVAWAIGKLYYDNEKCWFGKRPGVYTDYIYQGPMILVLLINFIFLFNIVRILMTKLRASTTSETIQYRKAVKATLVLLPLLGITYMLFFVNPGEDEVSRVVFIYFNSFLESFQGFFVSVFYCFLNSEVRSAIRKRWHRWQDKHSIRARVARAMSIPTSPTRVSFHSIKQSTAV
The assay can be described thus: Tested for in vivo activity and binding affinity to human Corticotropin releasing factor receptor 1; In activie.

The target of assay [2] is T1, Corticotropin-releasing factor receptor 1. Briefly: Inhibition of [125I]o-CRF binding to human Corticotropin releasing factor receptor 1 expressed in CHO cells. Type of assay: cell-based.
For assay [3] the target is unchanged. The assay can be described thus: Binding affinity to cloned human Corticotropin releasing factor receptor 1 expressed in CHO cells using [125I]o-CRF as radioligand at 10 uM concentration; In activie. Type of assay: cell-based.
In assay [4] the target is T2, Corticotropin-releasing factor receptor 1 (Homo sapiens) (UniProt P34998).
T2 sequence (whole entry): T1 sequence (P34998 whole entry)
Briefly: Binding affinity to cloned human Corticotropin releasing factor receptor 1 expressed in CHO cells using [125I]o-CRF as radioligand. Type of assay: cell-based. The note with it: concentration not given here.

In assay [5] the target is T1, Corticotropin-releasing factor receptor 1. Briefly: Binding affinity to cloned human CRF1 receptor expressed in CHO cells using [125I]o-CRF as radioligand at 10 uM concentration; In activie. The assay is classed as cell-based.

By Ki is commonly meant the equilibrium dissociation constant of an inhibitor or competing ligand from its target. Turning to `CCCCN(CC)c1nc(C)nc2c1c(C)cn2-c1c(C)cc(C)cc1C` [CP-154526], the Ki entry in assay [1] is reported as “Not Active”.

Regarding `CCCN(c1nc(-c2cc(F)c(Cl)cc2Cl)n(C)n1)C(C1CC1)C1CC1`, the inhibition constant Ki in assay [2] was determined as 15 nM.

In turn, `CCCN(c1nc(-c2ccc(Cl)cc2OC)n(C)n1)C(C1CC1)C1CC1` registered a Ki in assay [2] of 26 nM. Against the preceding compound, the Ki is about 1.7-fold higher.

In the case of `C=CCn1nc(N(CCC)C(C2CC2)C2CC2)nc1-c1c(C)cc(C)cc1C`, the affinity in assay [2] corresponds to a Ki of 2200 nM.

Compound `CCCN(c1nc(-c2ccc(Br)cc2C)n(C)n1)C(C1CC1)C1CC1` showed a Ki in assay [2] of 10 nM.

Consider `CCCN(CC1CC1)c1n[nH]c(-c2cccc3cc(OC)ccc23)n1`, for which, in assay [3], the inhibitory constant (Ki) result is reported as “Not Active”.

Take `CCCN(c1nc(-c2ccc(Cl)cc2Cl)nn1C)C(C1CC1)C1CC1`: in assay [2], the Ki is more than 10000 nM.

Regarding `CCCN(c1nc(-c2ccc(Cl)cc2)n(C)n1)C(C1CC1)C1CC1`, the Ki in assay [2] is 33 nM.

For `CCCN(CC1CC1)c1nc(-c2ccc(Cl)cc2Cl)n(C)n1`, the inhibitory constant (Ki) in assay [2] was more than 10000 nM.

`CCCN(CCC)c1nc(-c2ccc(Cl)cc2Cl)n(C)n1` displayed an inhibition constant (Ki) in assay [2] of 2600 nM.

In assay [2], `CCCN(c1n[nH]c(-c2ccc(Cl)cc2Cl)n1)C(C1CC1)C1CC1` registered an inhibition constant Ki of 2400 nM. The Ki values of the last two compounds are within 1.5-fold of each other.

With `CCCN(c1nc(-c2c(C)cc(C)cc2C)n(CC)n1)C(C1CC1)C1CC1`, the inhibition constant Ki in assay [2] is 310 nM.

A word on the inhibition: it is the share of the control response that was lost under treatment. Higher therefore signals strong suppression. Compound `C=CCn1nc(N(CCC)C(C2CC2)C2CC2)nc1-c1ccc(Cl)cc1Cl` registered an inhibition in assay [4] of 77%.

For the compound `CCCN(c1nc(-c2c(C)cc(C)cc2C)n(C)n1)C(C1CC1)C1CC1`, the affinity in assay [2] corresponds to a Ki of 120 nM.

Consider `CCCN(c1nc(-c2ccc(Cl)cc2Cl)n(C)n1)C(C1CC1)C1CC1`, for which, in assay [2], the inhibitory constant (Ki) came out at 9 nM.

As for `CCCN(c1nc(-c2ccc(Cl)cc2C)n(C)n1)C(C1CC1)C1CC1`, the inhibition constant Ki in assay [2] amounted to 22 nM.

As for `CCCN(CC1CC1)c1nc(C)nc(Nc2c(Cl)cc(Cl)cc2Cl)c1Cl`, the Ki entry in assay [1] is “Not Active”.

Compound `CCCN(c1nc(-c2ccc(Cl)cc2Cl)n(CC)n1)C(C1CC1)C1CC1` returned an inhibition constant Ki in assay [2] of 80 nM. This lies in the double-digit nanomolar range.

On to `CCCN(CCC)c1nc(-c2ccc(Cl)cc2Cl)n(CCO)n1`, for which the inhibitory constant (Ki) entry is “Not Active” in assay [5] and 14 nM in assay [2].

Consider `CCCN(CCC)c1n[nH]c(-c2ccc(Cl)cc2Cl)n1`, for which the inhibition constant (Ki) entry in assay [3] is given as “Not Active”.

Consider `CCCN(CC1CC1)c1nc(-c2cccc3cc(OC)ccc23)n(C)n1`, for which the Ki entry in assay [3] was “Not Active”.
